# Results as given in patent US20260250290A1 (BRISTOL-MYERS SQUIBB COMPANY, priority 2023, published 2026).
# Counter-ions that a name gives are not always drawn.
# Target: T1, full length SGK1 (Homo sapiens, UniProt O00141)
# T1 construct: 125 μM full length SGK1 (Life Technologies Part #PR7358A); purchased Life Technologies PR7358A
# T1 sequence (O00141 1-431): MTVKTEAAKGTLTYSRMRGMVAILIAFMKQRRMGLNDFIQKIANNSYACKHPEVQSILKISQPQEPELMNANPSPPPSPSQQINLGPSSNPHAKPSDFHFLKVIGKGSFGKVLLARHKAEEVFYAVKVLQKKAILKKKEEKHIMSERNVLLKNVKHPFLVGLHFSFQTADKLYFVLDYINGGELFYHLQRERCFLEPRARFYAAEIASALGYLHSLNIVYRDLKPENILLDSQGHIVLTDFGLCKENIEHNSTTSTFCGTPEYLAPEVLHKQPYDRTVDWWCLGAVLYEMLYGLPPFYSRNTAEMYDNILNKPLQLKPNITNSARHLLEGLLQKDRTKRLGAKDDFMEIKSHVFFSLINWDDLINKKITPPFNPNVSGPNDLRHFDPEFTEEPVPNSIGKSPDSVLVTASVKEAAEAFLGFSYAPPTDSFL
# Assay: SGK1 inhibition Assay A (Caliper LabChip electrophoretic separation of fluorescent peptide substrate and phosphorylated product)
# Type: biochemical
# Conditions: Assay A; 20 μM ATP, 40 min incubation; read-out: SGK1 IC50
row,Structure (SMILES),IC50 [nM]
1,"Nc1ncnn2c(-c3ccn[nH]3)cc(N3CCC[C@@H](NC(=O)c4ccc(Cl)s4)C3)c12 [Example 211, (R)-N-(1-(4-amino-7-(1H-pyrazol-5-yl)pyrrolo[2,1-f][1,2,4]triazin-5-yl)piperidin-3-yl)-5-chlorothiophene-2-carboxamide]",3
2,"N#Cc1ccc(-c2cc(N3CCC[C@@H](NC(=O)c4ccc(Cl)s4)C3)c3c(N)ncnn23)s1 [Example 212, (R)-N-(1-(4-amino-7-(5-cyanothiophen-2-yl)pyrrolo[2,1-f][1,2,4]triazin-5-yl)piperidin-3-yl)-5-chlorothiophene-2-carboxamide, TFA]",6
3,"COc1cnccc1-c1cc(N2CCC[C@@H](NC(=O)c3ccc(Cl)s3)C2)c2c(N)ncnn12 [Example 213, (R)-N-(1-(4-amino-7-(3-methoxypyridin-4-yl)pyrrolo[2,1-f][1,2,4]triazin-5-yl)piperidin-3-yl)-5-chlorothiophene-2-carboxamide, TFA]",5
4,"Nc1ncnn2c(-c3cccc(CO)c3)cc(N3CCC[C@@H](NC(=O)c4ccc(Cl)s4)C3)c12 [Example 214, (R)-N-(1-(4-amino-7-(3-(hydroxymethyl)phenyl)pyrrolo[2,1-f][1,2,4]triazin-5-yl)piperidin-3-yl)-5-chlorothiophene-2-carboxamide]",11
5,"COc1cc(-c2cc(N3CCC[C@@H](NC(=O)c4ccc(Cl)s4)C3)c3c(N)ncnn23)ccn1 [Example 215, (R)-N-(1-(4-amino-7-(2-methoxypyridin-4-yl)pyrrolo[2,1-f][1,2,4]triazin-5-yl)piperidin-3-yl)-5-chlorothiophene-2-carboxamide, TFA]",6
6,"Cn1cc(-c2cc(N3CCC[C@@H](NC(=O)c4ccc(Cl)s4)C3)c3c(N)ncnn23)cn1 [Example 216, (R)-N-(1-(4-amino-7-(1-methyl-1H-pyrazol-4-yl)pyrrolo[2,1-f][1,2,4]triazin-5-yl)piperidin-3-yl)-5-chlorothiophene-2-carboxamide, TFA]",26
7,"Cc1nn(C)cc1-c1cc(N2CCC[C@@H](NC(=O)c3ccc(Cl)s3)C2)c2c(N)ncnn12 [Example 217, (R)-N-(1-(4-amino-7-(1,3-dimethyl-1H-pyrazol-4-yl)pyrrolo[2,1-f][1,2,4]triazin-5-yl)piperidin-3-yl)-5-chlorothiophene-2-carboxamide]",62
8,"CC(C)(O)c1ccc(-c2cc(N3CCC[C@@H](NC(=O)c4ccc(Cl)s4)C3)c3c(N)ncnn23)cc1 [Example 218, (R)-N-(1-(4-amino-7-(4-(2-hydroxypropan-2-yl)phenyl)pyrrolo[2,1-f][1,2,4]triazin-5-yl)piperidin-3-yl)-5-chlorothiophene-2-carboxamide, TFA]",233
9,"Nc1ncnn2c(-c3ccc4c(c3)C(=O)NC4)cc(N3CCC[C@@H](NC(=O)c4ccc(Cl)s4)C3)c12 [Example 219, (R)-N-(1-(4-amino-7-(3-oxoisoindolin-5-yl)pyrrolo[2,1-f][1,2,4]triazin-5-yl)piperidin-3-yl)-5-chlorothiophene-2-carboxamide]",68
10,"Nc1ncnn2c(-c3ccnc(C(F)(F)F)c3)cc(N3CCC[C@@H](NC(=O)c4ccc(Cl)s4)C3)c12 [Example 220, (R)-N-(1-(4-amino-7-(2-(trifluoromethyl)pyridin-4-yl)pyrrolo[2,1-f][1,2,4]triazin-5-yl)piperidin-3-yl)-5-chlorothiophene-2-carboxamide]",7
11,Nc1ncnn2c(-c3ccc(CN4CCOCC4)cc3)cc(N3CCC[C@@H](NC(=O)c4ccc(Cl)s4)C3)c12 [Example 221],800
12,"COc1cc(-c2cc(N3CCC[C@@H](NC(=O)c4ccc(Cl)s4)C3)c3c(N)ncnn23)ccc1C#N [Example 222, (R)-N-(1-(4-amino-7-(4-cyano-3-methoxyphenyl)pyrrolo [2,1-f][1,2,4]triazin-5-yl)piperidin-3-yl)-5-chlorothiophene-2-carboxamide, TFA]",43
13,"Nc1ncnn2c(-c3ccc(N4CCOCC4)cc3)cc(N3CCC[C@@H](NC(=O)c4ccc(Cl)s4)C3)c12 [Example 223, (R)-N-(1-(4-amino-7-(4-morpholinophenyl)pyrrolo [2,1-f][1,2,4]triazin-5-yl)piperidin-3-yl)-5-chlorothiophene-2-carboxamide, TFA]",199
14,"COCCNC(=O)c1ccc(-c2cc(N3CCC[C@@H](NC(=O)c4ccc(Cl)s4)C3)c3c(N)ncnn23)cc1 [Example 224, (R)-N-(1-(4-amino-7-(4-((2-methoxyethyl)carbamoyl)phenyl)pyrrolo[2,1-f][1,2,4]triazin-5-yl)piperidin-3-yl)-5-chlorothiophene-2-carboxamide]",11
15,"Nc1ncnn2c(-c3ccc(OC(F)F)cc3)cc(N3CCC[C@@H](NC(=O)c4ccc(Cl)s4)C3)c12 [Example 225, (R)-N-(1-(4-amino-7-(4-(difluoromethoxy)phenyl)pyrrolo [2,1-f][1,2,4]triazin-5-yl)piperidin-3-yl)-5-chlorothiophene-2-carboxamide, TFA]",15
16,"CS(=O)(=O)c1ccc(-c2cc(N3CCC[C@@H](NC(=O)c4ccc(Cl)s4)C3)c3c(N)ncnn23)cn1 [Example 226, N-[(3R)-1-[4-amino-7-(6-methanesulfonylpyridin-3-yl)pyrrolo[2,1-f][1,2,4]triazin-5-yl]piperidin-3-yl]-5-chlorothiophene-2-carboxamide]",2
17,COc1c(-c2cc(N3CCC[C@@H](NC(=O)c4ccc(Cl)s4)C3)c3c(N)ncnn23)ccnc1F [Example 227],18

row,Structure (SMILES),IC50 [nM]
1,"Nc1ncnn2c(-c3ccc(S(=O)(=O)C4CC4)cc3)cc(N3CCC[C@@H](NC(=O)c4ccc(Cl)s4)C3)c12 [Example 228, N-[(3R)-1-{4-amino-7-[4-(cyclopropanesulfonyl)phenyl]pyrrolo[2,1-f][1,2,4]triazin-5-yl}piperidin-3-yl]-5-chlorothiophene-2-carboxamide, TFA]",6
2,Nc1ncnn2c(-c3cccc(OC(F)F)c3)cc(N3CCC[C@@H](NC(=O)c4ccc(Cl)s4)C3)c12 [Example 229],46
3,Nc1ncnn2c(-c3ccco3)cc(N3CCC[C@@H](NC(=O)c4ccc(Cl)s4)C3)c12 [Example 230],21
4,Nc1ncnn2c(-c3cc(F)nc(F)c3)cc(N3CCC[C@@H](NC(=O)c4ccc(Cl)s4)C3)c12 [Example 231],12
5,"COc1cc(-c2cc(N3CCC[C@@H](NC(=O)c4ccc(Cl)s4)C3)c3c(N)ncnn23)cc(C(F)(F)F)n1 [Example 232, N-[(3R)-1-{4-amino-7-[2-methoxy-6-(trifluoromethyl)pyridin-4-yl]pyrrolo[2,1-f][1,2,4]triazin-5-yl}piperidin-3-yl]-5-chlorothiophene-2-carboxamide]",161
6,Cc1cnc(F)cc1-c1cc(N2CCC[C@@H](NC(=O)c3ccc(Cl)s3)C2)c2c(N)ncnn12 [Example 233],33
7,Nc1ncnn2c(-c3cccc(Cl)c3)cc(N3CCC[C@@H](NC(=O)c4ccc(Cl)s4)C3)c12 [Example 234],64
8,Nc1ncnn2c(-c3ccc(Cl)cc3)cc(N3CCC[C@@H](NC(=O)c4ccc(Cl)s4)C3)c12 [Example 235],37
9,Nc1ncnn2c(-c3ccc(Cl)nc3)cc(N3CCC[C@@H](NC(=O)c4ccc(Cl)s4)C3)c12 [Example 236],19
10,"COC(=O)c1ccc(-c2cc(N3CCC[C@@H](NC(=O)c4ccc(Cl)s4)C3)c3c(N)ncnn23)n1C [Example 238, methyl 5-{4-amino-5-[(3R)-3-(5-chlorothiophene-2-amido)piperidin-1-yl]pyrrolo[2,1-f] [1,2,4]triazin-7-yl}-1-methyl-1H-pyrrole-2-carboxylate]",91
11,Nc1ncnn2c(C3=CCC(F)(F)CC3)cc(N3CCC[C@@H](NC(=O)c4ccc(Cl)s4)C3)c12 [Example 239],43
12,"CC(O)c1cccc(-c2cc(N3CCC[C@@H](NC(=O)c4ccc(Cl)s4)C3)c3c(N)ncnn23)c1 (stereo partly drawn) [Example 240, N-[(3R)-1-{4-amino-7-[3-(1-hydroxyethyl)phenyl]pyrrolo[2,1-f][1,2,4]triazin-5-yl}piperidin-3-yl]-5-chlorothiophene-2-carboxamide]",14
13,N#Cc1ccc(-c2cc(N3CCC[C@@H](NC(=O)c4ccc(Cl)s4)C3)c3c(N)ncnn23)cn1 [Example 241],0.3
14,"CNC(=O)c1ccc(-c2cc(N3CCC[C@@H](NC(=O)c4ccc(Cl)s4)C3)c3c(N)ncnn23)cn1 [Example 242, (R)-5-(4-amino-5-(3-(5-chlorothiophene-2-carboxamido)piperidin-1-yl)pyrrolo[2,1-f][1,2,4]triazin-7-yl)-N-methylpicolinamide]",5
15,"N#Cc1ccc(-c2cc(N3CCC[C@@H](NC(=O)c4ccc(Cl)s4)C3)c3c(N)ncnn23)cc1F [Example 243, (R)-N-(1-(4-amino-7-(4-cyano-3-fluorophenyl)pyrrolo[2,1-f][1,2,4]triazin-5-yl)piperidin-3-yl)-5-chlorothiophene-2-carboxamide, TFA]",1
16,"Nc1ncnn2c(-c3ccc4nnnn4c3)cc(N3CCC[C@@H](NC(=O)c4ccc(Cl)s4)C3)c12 [Example 244, (R)-N-(1-(4-amino-7-(tetrazolo[1,5-a]pyridin-6-yl)pyrrolo[2,1-f][1,2,4]triazin-5-yl)piperidin-3-yl)-5-chlorothiophene-2-carboxamide]",1
